Measured values as given in patent US10940159B2, “Combination immediate/delayed release delivery system for short half-life pharmaceuticals including remogliflozin” (priority 2010, dated 2021).
Read-outs that look alike come from different tables or passages of the source.

Assays:
[1] = Half-life, absorption window and permeability; type: in vivo; conditions: for half-life: human
[2] = 12 week clinical studies in T2DM, once daily and twice daily dosing; type: in vivo, human
Text: To date, studies have assessed the efficacy, safety and tolerability up to 12 weeks, with varying efficacy so there is a need to characterize the profile of a number of selected formulated doses over a 12-week period. […] However to minimize the time which subjects may have sub-optimal glycemic control, the double blind study medication has been limited to 12 weeks duration. In addition, criteria have been included to allow the introduction of rescue therapy after 6 weeks for those subjects who have a high FP. […] Furthermore, there is evidence that at these doses, there may also be clinically relevant weight loss, a key requirement for new T2DM therapies (20). As doses above 250 mg BID may be associated with relatively small incremental benefits on glycemia and weight loss and there is a trend for better tolerability at lower doses, future studies could have total daily doses less than 500 mg per day. […] It is believed that the primary mechanism for this isolated increase in LDL-c is due a combination of 1) hemoconcentration as a result of the diurectic effect, similar to that seen with diuretics (21, 22) and 2) SGLT2 overnight inhibition. […] Further, a combination IR/SR dose given QD in the morning may also provide meaningful benefits on glycemia and weight loss. From a safety perspective, other than small effects observed on the lipid profile and hematocrit, there was little difference in the safety profile based on the frequency of administration.

[3] = reduced from 9.0%; at mealtime in combination with a sulfonylurea; P<0.0001; cited from earlier work

Compound	half-life ([1]; in vivo, read-out: half-life)	half-life ([1]; plasma, read-out: half-life (t½) (converted))	permeability in the lower portion of the gastrointestinal tract ([1]; in vivo)	window of absorption ([1]; upper gastrointestinal tract, depending upon food intake, individual differences)	LDL-c ([2]; 250 mg and 500 mg bid doses)	LDL-c ([2]; higher QD doses)	hematocrit (surrogate marker for hemoconcentration) ([2]; higher QD doses)	hypoglycemic events ([2]; human, in vivo)	A1C levels [3]	half-life ([1]; in vivo, read-out: half-life (t½) (converted))
Cc1c(Cc2ccc(OC(C)C)cc2)c(O[C@@H]2O[C@H](CO)[C@@H](O)[C@H](O)[C@H]2O)nn1C(C)C [remogliflozin]	90 to 120 min	90 min	poor permeability	3 to 6 h	significant increases	no corresponding increases	increases in hematocrit	very little evidence		
insulin lispro: rapid-acting insulin analog									7.1%	
CCOC(=O)OC[C@H]1O[C@@H](Oc2nn(C(C)C)c(C)c2Cc2ccc(OC(C)C)cc2)[C@H](O)[C@@H](O)[C@@H]1O [remogliflozin etabonate, 5-methyl-4-[4-(1-methylethoxy)benzyl]-1-(1-methylethyl)-1H-pyrazol-3-yl 6-O-(ethoxycarbonyl)-β-D-glucopyranoside]			intrinsically poor permeability							90 min
